Measured values as given in US20260285850A1, “SUBSTITUTED OXAZOLIDINONES AND IMIDAZOLINONES AS HERBICIDES” (FMC CORPORATION, priority 2023, published 2026).

What was measured:
Format in all cases: in vivo
[1] = test system: galium (catchweed bedstraw, Galium aparine); test: Test A postemergence application, visual injury rating 0-100
In short: (§1)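 Loam-sand pots got test material in surfactant-containing solvent, either as a directed soil spray before emergence or on plants at the one- to two-leaf stage. Visual injury (0-100) was read after ten greenhouse days.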

[2] = test system: barnyardgrass (Echinochloa crus-galli); test: as above
In short: as §1

corn (Zea mays) [3] = test: as above
In short: as §1

[4] = test system: blackgrass (Alopecurus myosuroides); test: as above
In short: as §1

[5] = test system: ragweed (common ragweed, Ambrosia artemisiifolia); test: as above
In short: as §1

[6] = test system: ryegrass, Italian (italian ryegrass, Lolium multiflorum); test: as above
In short: as §1

[7] = test system: horseweed (Erigeron canadensis); test: as above
In short: as §1

[8] = test system: wheat (Triticum aestivum); test: as above
In short: as §1

[9] = test system: palmer (palmer amaranth, palmer pigweed, Amaranthus palmeri); test: as above
In short: as §1

[10] = test system: green foxtail (Setaria viridis); test: as above
In short: as §1

[11] = test system: oat, wild (wild oat, Avena fatua); test: as above
In short: as §1

kochia (Bassia scoparia) [12] = test: as above
In short: as §1

soybean (Glycine max) [13] = test: as above
In short: as §1

[14] = test system: barnyardgrass (Echinochloa crus-galli); test: Test A preemergence soil spray, visual injury rating 0-100; conditions: 10 days
In short: as §1

corn (Zea mays) [15] = test: as above; conditions: 10 days
In short: as §1

[16] = test system: blackgrass (Alopecurus myosuroides); test: as above; conditions: 10 days
In short: as §1

[17] = test system: ragweed (common ragweed, Ambrosia artemisiifolia); test: as above; conditions: 10 days
In short: as §1

[18] = test system: ryegrass, Italian (italian ryegrass, Lolium multiflorum); test: as above; conditions: 10 days
In short: as §1

[19] = test system: wheat (Triticum aestivum); test: as above; conditions: 10 days
In short: as §1

[20] = test system: green foxtail (Setaria viridis); test: as above; conditions: 10 days
In short: as §1

[21] = test system: oat, wild (wild oat, Avena fatua); test: as above; conditions: 10 days
In short: as §1

kochia (Bassia scoparia) [22] = test: as above; conditions: 10 days
In short: as §1

soybean (Glycine max) [23] = test: as above; conditions: 10 days
In short: as §1

rice (Oryza sativa) = test: Test B flooded paddy test, visual plant response rating 0-100; conditions: 250 g ai/ha, Flood, applied to paddy water, evaluated after 13 days
In short: (§2)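 Compounds applied to standing paddy water (3 cm above soil, maintained for the test duration) on 2-leaf-stage plants; visual rating vs controls at 13 days, greenhouse.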

[24] = test system: ducksalad (Heteranthera limosa); test: as above; conditions: 250 g ai/ha, Flood, applied to paddy water, evaluated after 13 days
In short: as §2

[25] = test system: sedge, umbrella (small-flower umbrella sedge, Cyperus difformis); test: as above; conditions: 250 g ai/ha, Flood, applied to paddy water, evaluated after 13 days
In short: as §2

[26] = test system: barnyardgrass (Echinochloa crusgalli); test: as above; conditions: 250 g ai/ha, Flood, applied to paddy water, evaluated after 13 days
In short: as §2

[27] = 62 g ai/ha, postemergence, 10 days, 0 = no effect, 100 = complete control
[28] = Postemergence, 16 g ai/ha, greenhouse 10 days, 0 no effect, 100 complete control
[29] = 62 g ai/ha, 0 = no effect, 100 = complete control

## CCOC(=O)C1=CCC(NC(=O)C2(C)CN(c3cc(F)cc(Cl)c3)C(=O)O2)C1 (centres unmarked) [Compound 134]
[1]; [27]
  Galium plant response rating (0-100): 0
[1]; [28]
  Galium plant response rating (0 to 100 scale): 0
[2]; [27]
  Barnyardgrass plant response rating (0-100): 0
[2]; [28]
  Barnyardgrass plant response rating (0 to 100 scale): 0
Corn (Zea mays) [3]; [27]
  Corn plant response rating (0-100): 0
Corn (Zea mays) [3]; [28]
  Corn plant response rating (0 to 100 scale): 0
[4]; [27]
  Blackgrass plant response rating (0-100): 0
[4]; [28]
  Blackgrass plant response rating (0 to 100 scale): 0
[5]; [27]
  Ragweed plant response rating (0-100): 0
[5]; [28]
  Ragweed plant response rating (0 to 100 scale): 0
[6]; [27]
  Ryegrass, Italian plant response rating (0-100): 0
[6]; [28]
  Ryegrass, Italian plant response rating (0 to 100 scale): 0
[7]; [27]
  Horseweed plant response rating (0-100): 0
[7]; [28]
  Horseweed plant response rating (0 to 100 scale): 0
[8]; [27]
  Wheat plant response rating (0-100): 0
[8]; [28]
  Wheat plant response rating (0 to 100 scale): 0
[9]; [27]
  Pigweed, Palmer plant response rating (0-100): 0
[9]; [28]
  Pigweed, Palmer plant response rating (0 to 100 scale): 0
[10]; [27]
  Foxtail, Green plant response rating (0-100): 0
[10]; [28]
  Foxtail, Green plant response rating (0 to 100 scale): 0
[11]; [27]
  Oat, Wild plant response rating (0-100): 0
[11]; [28]
  Oat, Wild plant response rating (0 to 100 scale): 0
Kochia (Bassia scoparia) [12]; [27]
  Kochia plant response rating (0-100): 0
Kochia (Bassia scoparia) [12]; [28]
  Kochia plant response rating (0 to 100 scale): 0
Soybean (Glycine max) [13]; [27]
  Soybean plant response rating (0-100): 0
Soybean (Glycine max) [13]; [28]
  Soybean plant response rating (0 to 100 scale): 0
[14]; 16 g ai/ha, 0 to 100 scale
  Barnyardgrass plant response rating: 0
[14]; [29]
  Barnyardgrass plant response rating (0-100): 0
Corn (Zea mays) [15]; 16 g ai/ha, 0 to 100 scale
  Corn plant response rating: 0
Corn (Zea mays) [15]; [29]
  Corn plant response rating (0-100): 0
[16]; 16 g ai/ha, 0 to 100 scale
  Blackgrass plant response rating: 0
[16]; [29]
  Blackgrass plant response rating (0-100): 30
[17]; 16 g ai/ha, 0 to 100 scale
  Ragweed plant response rating: 0
[17]; [29]
  Ragweed plant response rating (0-100): 0
[18]; 16 g ai/ha, 0 to 100 scale
  Ryegrass, Italian plant response rating: 0
[18]; [29]
  Ryegrass, Italian plant response rating (0-100): 0
[19]; 16 g ai/ha, 0 to 100 scale
  Wheat plant response rating: 0
[19]; [29]
  Wheat plant response rating (0-100): 0
[20]; 16 g ai/ha, 0 to 100 scale
  Foxtail, Green plant response rating: 0
[20]; [29]
  Foxtail, Green plant response rating (0-100): 0
[21]; 16 g ai/ha, 0 to 100 scale
  Oat, Wild plant response rating: 0
[21]; [29]
  Oat, Wild plant response rating (0-100): 0
Kochia (Bassia scoparia) [22]; 16 g ai/ha, 0 to 100 scale
  Kochia plant response rating: 0
Kochia (Bassia scoparia) [22]; [29]
  Kochia plant response rating (0-100): 0
Soybean (Glycine max) [23]; 16 g ai/ha, 0 to 100 scale
  Soybean plant response rating: 0
Soybean (Glycine max) [23]; [29]
  Soybean plant response rating (0-100): 0
Rice (Oryza sativa)
  Plant response rating, Rice (0 to 100 scale, 0 is no effect and 100 is complete control): 0
[24]
  Plant response rating, Ducksalad (0 to 100 scale, 0 is no effect and 100 is complete control): 0
[25]
  Plant response rating, Sedge, Umbrella (0 to 100 scale, 0 is no effect and 100 is complete control): 0
[26]
  Plant response rating, Barnyardgrass (0 to 100 scale, 0 is no effect and 100 is complete control): 0
